# Reference: publication PMC4311994, “Identification, Expression Profiling and Fluorescence-Based Binding Assays of a Chemosensory Protein Gene from the Western Flower Thrips, Frankliniella occidentalis” (PLoS ONE, 2015)
# Like-named read-outs stand apart in the source and are kept apart here.
# What was measured:
# [1] = target: recombinant FoccCSP protein (Frankliniella occidentalis, UniProt A0A0C5AYL1); experiment: biochemical; assay type: binding; details: for Kd: Dissociation constant (KD), calculated from IC50 with Ki = [IC50]/(1+[1-NPN]/K1-NPN)
# Experimental: (§1) Fluorescence binding assays were performed using a 970CRT spectrofluorophotometer (Lengguang, Shanghai, China) at 25°C with a 1 cm lightpath quartz cuvette and 10 nm slit width for excitation and emission. FoccCSP protein was diluted from a 2 μM stock solution with 50 mM Tris-HCl buffer (pH 7.4). The fluorescent probe N-phenyl-1-naphthylamine (1-NPN) was diluted from a 1 mM stock solution with methanol. The potential ligands were prepared in a similar manner as 1-NPN.
# To measure the affinity of the 1-NPN fluorescent ligand for FoccCSP, the 2 μM protein solution prepared above was titrated with 1 mM 1-NPN to a final concentration between 2 and 20 μM. The affinities of the other potential ligands were measured using 1-NPN as a fluorescent reporter in competitive binding assays using 2 μM solutions of 1-NPN and FoccCSP and the addition of ligands to concentrations of 2–300 μM.
# To determine the 1-NPN and FoccCSP binding constants, the intensity values corresponding to the maximum fluorescence emissions were plotted against the concentration of free ligand. The bound ligand was evaluated using the fluorescence intensity values assuming that the protein was 100% active and using a saturation stoichiometry of 1:1 protein:ligand. The curves were linearized using the Scatchard Plot program. The dissociation constants for the competitors were calculated from the corresponding IC50 values using the equation K i = [IC 50]/(1+[1-NPN]/K 1-NPN), where [1-NPN] is the free concentration of 1-NPN and K 1-NPN is the dissociation constant of the FoccCSP/1-NPN complex.
# FoccCSP protein = target: T1, FoccCSP protein (Frankliniella occidentalis, UniProt A0A0C5AYL1); experiment: Binding of the fluorescent probe 1-NPN to FoccCSP (titration, Scatchard plot); details: 2 μM FoccCSP titrated with 1-NPN to 2–20 μM, read-out: FoccCSP/1-NPN complex dissociation constant
# T1 sequence (A0A0C5AYL1 20-128): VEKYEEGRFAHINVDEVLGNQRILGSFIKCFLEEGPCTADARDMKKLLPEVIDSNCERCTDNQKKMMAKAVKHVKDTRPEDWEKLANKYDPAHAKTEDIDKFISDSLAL
# Experimental: as §1
# The intrinsic fluorescence of tryptophan was measured using a 2 μM FoccCSP protein solution. The excitation wavelength was 285 nm, and the emission spectrum was recorded between 290 and 530 nm. Quenching of the intrinsic fluorescence was measured in the presence of 2, 4, 6, 8, 10, 12, 14, 16, 18, and 20 μM 1-NPN under the same conditions.
# To measure the affinity of the 1-NPN fluorescent ligand for FoccCSP, the 2 μM protein solution prepared above was titrated with 1 mM 1-NPN to a final concentration between 2 and 20 μM. […]
# To determine the 1-NPN and FoccCSP binding constants, the intensity values corresponding to the maximum fluorescence emissions were plotted against the concentration of free ligand. The bound ligand was evaluated using the fluorescence intensity values assuming that the protein was 100% active and using a saturation stoichiometry of 1:1 protein:ligand. […]
# [2] = competitive displacement of 1-NPN, 2 μM 1-NPN and 2 μM FoccCSP, ligands 2–300 μM, 50 mM Tris-HCl pH 7.4, 25°C, read-out: IC50
Molecule,"IC50 [1, 2] [µM]",IC50 [1] [µM],Kd ([1]; 2 μM 1-NPN and 2 μM FoccCSP) [µM],also measured
3- phenyl aldehyde,108,–,–,–
"c1ccc(Nc2cccc3ccccc23)cc1 [1-NPN, N-phenyl-1-naphthylamine]",–,–,–,Kd (FoccCSP protein): 11.8 µM
COc1ccc(C=O)cc1 [Anisic aldehyde],11.4,–,–,–
O=Cc1ccccc1 [Benzaldehyde],–,52.5,48.4,–
CC(=O)OCc1ccccc1 [Benzyl acetate],–,98.2,90.5,–
OCc1ccccc1 [Benzyl alcohol],–,119,109,–
CC(C)=CCC[C@@H](C)CC=O [Citronellal],76.1,–,–,–
CC(C)=CCCC(C)CCO (centres unmarked) [Citronellol],–,75.8,69.9,–
CCc1ccccc1 [Ethyl benzene],–,63.4,58.5,–
CCOC(=O)c1cccnc1 [Ethyl nicotinate],–,52,47.9,–
CC12CCC(CC1)C(C)(C)O2 [Eucalyptol],–,92.4,85.2,–
C=CCc1ccc(O)c(OC)c1 [Eugenol],–,96.4,88.9,–
CC(C)=CCC/C(C)=C/CO [Geraniol],–,15.3,14.1,–
CCCCCC [Hexane],–,94.2,86.9,–
C=CC(C)(O)CCC=C(C)C (centres unmarked) [Linalool],–,85.6,79,–
COC(=O)c1ccncc1 [Methyl isonicotinate],52,–,–,–
COC(=O)c1ccccc1O [Methyl salicylate],–,35.2,32.5,–
CCCCCCCCC=O [Pelargonic aldehyde],79,–,–,–
O=Cc1ccccc1O [Salicylaldehyde],–,–,–,"Displacement of 1-NPN from the FoccCSP/1-NPN complex, fluorescence intensity decreased to 50% of the initial value ([1]; ligands up to 300 μM): unable to displace the fluorescent 1-NPN probe"
Neroli,98.9,–,–,–
